# Measured values from article PMC8777605 (Pharmaceuticals, 2021).
# “Also recorded” adds a separate entry of the source. Where two headings read alike, the source gives them in different places.
# What was measured:
# [1] = system: SARS-CoV-2 gamma strain (P1, B.1.1.28); assay: microbe, parasite or virus in culture; details: Severe acute respiratory syndrome coronavirus 2, Calu-3, 48 h
# Cytotoxic assay = type: cell-based; details: African green monkey, table title says Calu-3 cells, method says Vero cells
# Method: All experiments were carried out at least three independent times and each data was analyzed from Prism GraphPad software 8.0 (Windows GraphPad Software, San Diego, CA, USA). The results were presented as mean ± standard deviation (SD).
# [2] = system: SARS-CoV-2 gamma strain (P1, B.1.1.28)
# SARS-CoV-2 gamma strain = type: in vivo, K18-hACE2 mice
# [3] = Pharmacokinetics in plasma and lungs after oral dosing; type: in vivo, Swiss–Webster mice; details: mice, 60 mg/kg oral
# Method: Each treatment group had five animals. After these periods of times, total blood and lungs were collected. Plasma was obtained by blood centrifugation at 8000× g for 15 min. Time zero was obtained by analyzing the matrix pool (blood plasma) of untreated animals. The pharmacokinetic parameters of half-life (t1/2, h), time until maximum concentration is reached (tmax, h), maximum compound concentration (Cmax, ng/mL) and area under the curve (AUC, h.ng/mL) were determined. The experiments performed in this section were approved by the Committee on the Use of Laboratory Animals of the Oswaldo Cruz Foundation (CEUA-FIOCRUZ, license L003/21).
# [4] = molecular target: T1, SARS-CoV-2 main protease (M^pro) (Severe acute respiratory syndrome coronavirus 2, UniProt P0DTD1); assay: biochemical
# T1 construct: purchased BPS Bioscience #79955-1
# Method: (§1) Fluorescence signal was measured at an emission wavelength of 460 nm with excitation at 360 nm in a GloMax® (Promega, Madison, WI, USA) plate reader. Morrison’s inhibitory constant (Ki) was calculated by non-linear regression using GraphPad Prism 9. […] After fluorescence quantification, the Michaelis–Menten constant (Km) and maximum velocity (Vmax) were calculated by non-linear regression using GraphPad Prism 9. The value was presented as mean ± standard deviation (SD).
# [5] = system: human platelet-poor plasma clotting; assay: Plasma clotting time (fibrin formation); details: three concentrations of ATV, Figure S3
# Method: Human blood samples were collected from healthy donors in 3.8% trisodium citrate (9:1, v/v), and platelet-poor plasma was obtained by centrifugation at 3000 rpm for 10 min. […] Time for clot formation was recorded in triplicates.
# [6] = molecular target: T2, SARS-CoV-2 papain-like protease (PL^pro) (Severe acute respiratory syndrome coronavirus 2, UniProt P0DTD1); assay: SARS-CoV-2 PL^pro enzymatic assay (BPS Bioscience kit); type: biochemical
# T2 construct: purchased BPS Bioscience #79995-1
# Method: as §1
# SARS-CoV-2 B.1 lineage = assay: microbe, parasite or virus in culture; type: cell-based
structure (smiles),measurement,setting,value
"CCC(CC)COC(=O)[C@H](C)N[P@](=O)(OC[C@H]1O[C@@](C#N)(c2ccc3c(N)ncnn23)[C@H](O)[C@@H]1O)Oc1ccccc1 [RDV, remdesivir]",EC50,[1],113 ± 10 nM
same,CC50 at 3 days,Cytotoxic assay,512000 ± 30000 nM
same,SI (CC50/EC50),[2],4530
"COC(=O)N[C@H](C(=O)N[C@@H](Cc1ccccc1)[C@@H](O)CN(Cc1ccc(-c2ccccn2)cc1)NC(=O)[C@@H](NC(=O)OC)C(C)(C)C)C(C)(C)C [ATV, atazanavir]","Body weight, treated versus untreated infected mice",SARS-CoV-2 gamma strain; 60 mg/kg oral daily,not a statical difference
same,"Lung injury (hemorrhage, shrinking of lobe, bronchiole and alveoli), histology",SARS-CoV-2 gamma strain; 60 mg/kg oral daily,reduced
same,SARS-CoV-2-induced IL-6 levels in the BAL and in the lungs,SARS-CoV-2 gamma strain; 60 mg/kg oral daily,reduced
same,"Levels of IL-6, TNF-a, KC and PF4 in the BAL","SARS-CoV-2 gamma strain; 60 mg/kg oral daily, compared to untreated mice",lower levels
same,Animal survival (in words),"SARS-CoV-2 gamma strain; mouse, in vivo",statistically significant increase
same,Cell death (LDH activity) in BAL,"SARS-CoV-2 gamma strain; mouse, in vivo",significantly decreased
same,Enhancement of survival,"SARS-CoV-2 gamma strain; mouse, in vivo",30%
same,Polymorphonuclear and mononuclear cell counts in BAL,"SARS-CoV-2 gamma strain; mouse, in vivo",significantly decreased
same,SARS-CoV-2 RNA levels in BAL,"SARS-CoV-2 gamma strain; mouse, in vivo",significantly decreased
same,AUC,"[3]; Swiss-Webster, mouse, plasma",14300 ng·h/mL
same,Cmax,"[3]; Swiss-Webster, mouse, plasma",7430 ng/mL
same,Tmax,"[3]; Swiss-Webster, mouse, plasma",1 h
same,half-life,"[3]; Swiss-Webster, mouse, plasma",9.9 h
same,Distribution to the lung,[3]; AUC lung versus plasma,concentrated in the lung
same,Ki,[4],703 ± 79 nM
same,Increase of M^pro's Km by the inhibitor,[4]; 2.5 μM ATV versus absence,more than sixfold
same,Inhibition profile (mechanism),"[4]; Vmax not different, Km increased",competitive inhibition profile
same,Maximum velocity (Vmax) of M^pro,"[4]; in the presence of 2.5 μM ATV, substrate 0–100 μM",24.94 ± 3.70 µM/min
same,Anti-clotting activity,[5],could not prevent hemorrhage as an anti-clotting agent
same,Inhibition of PL^pro (in words),[6]; 0–10 μM,did not inhibit; also recorded: above the threshold of in vitro inhibition
same,Ki,"[6]; 100 nM PL^pro, 25 μM substrate, 45–60 min, 0–10 μM inhibitor, read-out: Morrison's inhibitory constant (Ki)",9870 nM
same,EC50,[1],399 ± 20 nM
same,CC50 at 3 days,Cytotoxic assay,312000 ± 8000 nM
same,EC50,SARS-CoV-2 B.1 lineage,321 ± 16 nM
same,EC50,"SARS-CoV-2 B.1 lineage; Severe acute respiratory syndrome coronavirus 2, Calu-3, 48 h",490 ± 20 nM
